The text below walks through data of patent US9695154B2, “Heteroaryl inhibitors of sumo activating enzyme” (MILLENNIUM PHARMACEUTICALS, INC., priority 2013, dated 2017).

For this assay, the target named is T1, recombinant human SAE enzyme (Homo sapiens, UniProt Q9UBT2).
T1 sequence (Q9UBT2 1-640): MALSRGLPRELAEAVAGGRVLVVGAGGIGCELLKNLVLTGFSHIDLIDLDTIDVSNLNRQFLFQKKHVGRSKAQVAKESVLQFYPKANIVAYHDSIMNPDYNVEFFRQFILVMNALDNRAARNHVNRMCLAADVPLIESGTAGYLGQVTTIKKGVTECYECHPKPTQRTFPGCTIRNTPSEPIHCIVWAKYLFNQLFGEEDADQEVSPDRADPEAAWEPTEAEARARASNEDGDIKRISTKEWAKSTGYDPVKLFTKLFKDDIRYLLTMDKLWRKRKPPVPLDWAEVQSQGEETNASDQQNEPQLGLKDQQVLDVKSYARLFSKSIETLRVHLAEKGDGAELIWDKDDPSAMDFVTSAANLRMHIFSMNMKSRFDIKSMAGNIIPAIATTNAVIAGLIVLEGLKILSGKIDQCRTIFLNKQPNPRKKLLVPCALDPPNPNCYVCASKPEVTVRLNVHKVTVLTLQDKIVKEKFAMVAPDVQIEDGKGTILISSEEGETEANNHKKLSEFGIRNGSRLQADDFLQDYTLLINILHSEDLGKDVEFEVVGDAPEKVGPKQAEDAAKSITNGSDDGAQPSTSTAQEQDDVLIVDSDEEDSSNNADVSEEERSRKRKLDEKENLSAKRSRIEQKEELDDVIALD
T1 sequence (Q9UBE0 1-346 partner): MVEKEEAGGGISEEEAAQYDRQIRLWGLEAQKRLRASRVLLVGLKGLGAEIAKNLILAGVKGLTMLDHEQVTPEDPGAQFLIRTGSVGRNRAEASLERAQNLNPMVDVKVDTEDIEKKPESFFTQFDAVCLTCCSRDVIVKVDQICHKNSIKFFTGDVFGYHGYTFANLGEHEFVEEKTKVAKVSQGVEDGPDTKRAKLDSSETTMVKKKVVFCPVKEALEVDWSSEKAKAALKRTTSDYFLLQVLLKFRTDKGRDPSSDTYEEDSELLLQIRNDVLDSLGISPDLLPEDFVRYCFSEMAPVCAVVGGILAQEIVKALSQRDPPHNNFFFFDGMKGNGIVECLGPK
As to the kind of experiment: SAE HTRF Enzyme Assay. Type of assay: biochemical. Conditions: for IC50: class symbols A-C; for Percent Inhibition / inhibition at 0.111 µM: compound concentration 0.111 μM; for Percent Inhibition: 0.111 µM; for inhibition at 0.111 µM: read-out: Percent Inhibition. Summed up:
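HTRF signal from Eu-anti-Flag/APC-anti-GST pairs reports Sumo-Flag loaded onto Ubc9-GST by 0.11 nM SAE. Reaction: 0.5 μM ATP, 0.125 μM Sumo-Flag, 0.01 μM Ubc9-GST, 5 mM MgCl2, pH 7.5, 105 min, 24° C. Single-concentration % inhibition or IC50 reported.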

Molecules are shown by their SMILES. Bounds are passed on as bounds.

Consider `CC(c1cccc(Cl)c1)n1ccc(C(=O)c2cncnc2N[C@@H]2C[C@H](COS(N)(=O)=O)[C@@H](O)C2)n1` (single isomer, unassigned) [Compound I-133, [(1R,2S,4R)-4-{[5-({1-[(1S)-1-(3-chlorophenyl)ethyl]-1H-pyrazol-3-yl}carbonyl)pyrimidin-4-yl]amino}-2-hydroxycyclopentyl]methyl sulfamate or [(1R,2S,4R)-4-{[5-({1-[(1R)-1-(3-chlorophenyl)ethyl]-1H-pyrazol-3-yl}carbonyl)pyrimidin-4-yl]amino}-2-hydroxycyclopentyl]methyl sulfamate], for which the IC50 was 10 to 100 nM and the “Percent Inhibition” value amounted to 61%.
With `NS(=O)(=O)OC[C@H]1C[C@@H](Nc2ncncc2C(=O)c2ccn(CC3CC3c3ccccc3)c2)[C@@H](F)[C@@H]1O` (single isomer, unassigned) [Compound I-9, [(1R,2R,3R,4R)-3-fluoro-2-hydroxy-4-{[5-({1-[(1R,2R)-(2-phenylcyclopropyl)methyl]-1H-pyrrol-3-yl}carbonyl)pyrimidin-4-yl]amino}cyclopentyl]methyl sulfamate or [(1R,2R,3R,4R)-3-fluoro-2-hydroxy-4-{[5-({1-[(1S,2S)-(2-phenylcyclopropyl)methyl]-1H-pyrrol-3-yl}carbonyl)pyrimidin-4-yl]amino}cyclopentyl]methyl sulfamate], the IC50 fell in the range of 10 to 100 nM and the “Percent Inhibition” value is recorded as 91%.
For `NS(=O)(=O)OC[C@H]1C[C@@H](Nc2ncncc2C(=O)c2ccn(Cc3ccc(Cl)c(C(F)(F)F)c3)n2)[C@H](O)[C@@H]1O` [Compound I-34, [(1R,2R,3S,4R)-4-{[5-({1-[4-chloro-3-(trifluoromethyl)benzyl]-1H-pyrazol-3-yl}carbonyl)pyrimidin-4-yl]amino}-2,3-dihydroxycyclopentyl] methyl sulfamate], the half-maximal inhibitory concentration (IC50) was < 10 nM and the inhibition at 0.111 µM turned out to be 99%.
In the case of `CC(c1cccc(Br)c1)n1ccc(C(=O)c2cncnc2N[C@@H]2C[C@H](COS(N)(=O)=O)[C@@H](O)C2)n1` (single isomer, unassigned) [Compound I-315, [(1R,2S,4R)-4-{[5-({1-[(1S)-1-(3-bromophenyl)ethyl]-1H-pyrazol-3-yl}carbonyl)pyrimidin-4-yl]amino}-2-hydroxycyclopentyl]methyl sulfamate or [(1R,2S,4R)-4-{[5-({1-[(1R)-1-(3-bromophenyl)ethyl]-1H-pyrazol-3-yl}carbonyl)pyrimidin-4-yl]amino}-2-hydroxycyclopentyl]methyl sulfamate], the IC50 was < 10 nM and the inhibition at 0.111 µM amounted to 99%.
As to `NS(=O)(=O)OC[C@H]1C[C@@H](Nc2ncncc2C(=O)c2ccn(Cc3ccc(SC(F)(F)F)cc3)n2)[C@H](O)[C@@H]1O` [Compound I-259, [(1R,2R,3S,4R)-2,3-dihydroxy-4-({5-[(1-{4-[(trifluoromethyl)sulfanyl]benzyl}-1H-pyrazol-3-yl)carbonyl]pyrimidin-4-yl}amino)cyclopentyl]methyl sulfamate], the IC50 was < 10 nM and the inhibition at 0.111 µM worked out at 95%.
On to `NS(=O)(=O)OC[C@H]1C[C@@H](Nc2ncncc2C(=O)c2ccn(CC#CC3(O)CCOCC3)n2)C[C@@H]1O` [Compound I-27, [(1R,2S,4R)-2-hydroxy-4-{[5-({1-[3-(4-hydroxytetrahydro-2H-pyran-4-yl)prop-2-yn-1-yl]-1H-pyrazol-3-yl}carbonyl)pyrimidin-4-yl]amino}cyclopentyl]methyl sulfamate], for which the IC50 was 100 to 1000 nM and the inhibition at 0.111 µM was found to be 9%.
As to `NS(=O)(=O)OC[C@H]1C[C@@H](Nc2ncncc2C(=O)c2ccn(Cc3cccc(OC(F)(F)F)c3)n2)[C@@H](F)[C@@H]1O` [Compound I-23, [(1R,2R,3R,4R)-3-Fluoro-2-hydroxy-4-{[5-({1-[3-(trifluoromethoxy)benzyl]-1H-pyrazol-3-yl}carbonyl)pyrimidin-4-yl]amino}cyclopentyl]methyl sulfamate], the IC50 was < 10 nM and the inhibition at 0.111 µM worked out at 98%.
Consider `CN(c1ncncc1C(=O)c1ccn(Cc2cccc(Br)c2)n1)[C@@H]1C[C@H](COS(N)(=O)=O)[C@@H](O)C1` [Compound I-157, {(1R,2S,4R)-4-[(5-{[1-(3-Bromobenzyl)-1H-pyrazol-3-yl]carbonyl}pyrimidin-4-yl)(methyl)amino]-2-hydroxycyclopentyl}methyl sulfamate], for which the IC50 lay in the range of 10 to 100 nM and the inhibition at 0.111 µM came to 67%.
Take `NS(=O)(=O)OC[C@H]1C[C@@H](Nc2ncncc2C(=O)c2ccn(CC#Cc3ccco3)n2)C[C@@H]1O` [Compound I-199, [(1R,2S,4R)-4-{[5-({1-[3-(2-furyl)prop-2-yn-1-yl]-1H-pyrazol-3-yl}carbonyl)pyrimidin-4-yl]amino}-2-hydroxycyclopentyl]methyl sulfamate]: the IC50 was < 10 nM and the inhibition at 0.111 µM is 94%.
On to `NS(=O)(=O)OC[C@H]1C[C@@H](Nc2ncncc2C(=O)c2ccn(Cc3csc4ccc(Cl)cc34)c2)C[C@@H]1O` [Compound I-341, [(1R,2S,4R)-4-{[5-({1-[(5-chloro-1-benzothiophen-3-yl)methyl]-1H-pyrrol-3-yl}carbonyl)pyrimidin-4-yl]amino}-2-hydroxycyclopentyl]methyl sulfamate], for which the IC50 was < 10 nM and the inhibition at 0.111 µM worked out at 98%.
Consider `NS(=O)(=O)OC[C@H]1C[C@@H](Nc2ncncc2C(=O)c2ccn(CC3CC3c3ccccc3)c2)C[C@@H]1O` (mixture of isomers) [Compound I-339, [(1R,2S,4R)-2-hydroxy-4-{[5-({1-[(1S,2S)-(2-phenylcyclopropyl)methyl]-1H-pyrrol-3-yl}carbonyl)pyrimidin-4-yl]amino}cyclopentyl]methyl sulfamate and [(1R,2S,4R)-2-hydroxy-4-{[5-({1-[(1R,2R)-(2-phenylcyclopropyl)methyl]-1H-pyrrol-3-yl}carbonyl)pyrimidin-4-yl]amino}cyclopentyl]methyl sulfamate], for which the IC50 is < 10 nM and the inhibition at 0.111 µM is 93%.
As for `NS(=O)(=O)OC[C@H]1C[C@@H](Nc2ncncc2C(=O)c2ccn(Cc3cc(F)c(F)c(F)c3)n2)[C@H](O)[C@@H]1O` [Compound I-326, {(1R,2R,3S,4R)-2,3-dihydroxy-4-[(5-{[1-(3,4,5-trifluorobenzyl)-1H-pyrazol-3-yl]carbonyl}pyrimidin-4-yl)amino]cyclopentyl}methyl sulfamate], the IC50 is < 10 nM and the inhibition at 0.111 µM was determined as 95%.
The matching figures for `NS(=O)(=O)OC[C@H]1C[C@@H](Nc2ncncc2C(=O)c2ccn(Cc3ccc(Cl)o3)c2)[C@@H](F)[C@@H]1O` [Compound I-296, [(1R,2R,3R,4R)-4-{[5-({1-[(5-chloro-2-furyl)methyl]-1H-pyrrol-3-yl}carbonyl)pyrimidin-4-yl]amino}-3-fluoro-2-hydroxycyclopentyl]methyl sulfamate]: < 10 nM and 100%.
For the compound `C=CS(=O)(=O)c1cccc(Cn2ccc(C(=O)c3cncnc3N[C@@H]3C[C@H](COS(N)(=O)=O)[C@@H](O)[C@H]3O)n2)c1` [Compound I-321, [(1R,2R,3S,4R)-2,3-Dihydroxy-4-{[5-({1-[3-(vinylsulfonyl)benzyl]-1H-pyrazol-3-yl}carbonyl)pyrimidin-4-yl]amino}cyclopentyl]methyl sulfamate], the IC50 fell in the range of 10 to 100 nM and the inhibition at 0.111 µM came out at 89%.
In the case of `Cc1cc(C(=O)c2cncnc2N[C@@H]2C[C@H](COS(N)(=O)=O)[C@@H](O)C2)nn1C(C)c1cccc(Cl)c1` (single isomer, unassigned) [Compound I-365, [(1R,2S,4R)-4-{[5-({1-[(1S)-1-(3-chlorophenyl)ethyl]-5-methyl-1H-pyrazol-3-yl}carbonyl)pyrimidin-4-yl]amino}-2-hydroxycyclopentyl]methyl sulfamate or [(1R,2S,4R)-4-{[5-({1-[(1R)-1-(3-chlorophenyl)ethyl]-5-methyl-1H-pyrazol-3-yl}carbonyl)pyrimidin-4-yl]amino}-2-hydroxycyclopentyl]methyl sulfamate], the IC50 fell in the range of 10 to 100 nM and the “Percent Inhibition” value is recorded as 79%.
Regarding `NS(=O)(=O)OC[C@H]1C[C@@H](Nc2ncncc2C(=O)c2ccn(CCc3cccc4ccccc34)n2)[C@H](O)[C@@H]1O` [Compound I-118, [(1R,2R,3S,4R)-2,3-dihydroxy-4-{[5-({1-[2-(1-naphthyl)ethyl]-1H-pyrazol-3-yl}carbonyl)pyrimidin-4-yl]amino}cyclopentyl]methyl sulfamate], the IC50 is < 10 nM and the inhibition at 0.111 µM worked out at 99%.
